The subject of the assay is M. tuberculosis H37Rv growth inhibition with meropenem. The experiment in a line: dose response, H37Rv, with and without meropenem (AID 434987).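 Also: growth over 7 days at 37 °C before Alamar Blue read on day 9.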
[1] abbreviates: M. tuberculosis H37Rv growth inhibition, measured here: IC50 without meropenem.
The mark [2] stands for this setting: M. tuberculosis H37Rv growth inhibition, measured here: IC90 without meropenem.
The mark [3] stands for this setting: measured here: IC90 with meropenem.

Active and inactive are the calls of the source. No rule for the calls is given here.

The IC50 is the concentration needed to halve the response being measured. As a reminder, the IC90 is the concentration at which the effect reaches the 90% level. `CC(C)(C)c1nc2scc(-c3cccs3)c2c(=O)o1`: the IC50 was > 100 µM (inactive). Under setting [1], this compound came in with an IC50 above 100 µM. For the same compound, the IC90 under setting [2] is above 100 µM. The same compound came in with an IC90 under setting [3] above 100 µM.
In the case of `O=C(Nc1nc(-c2ccc3c(c2)OCCO3)cs1)c1ccc(S(=O)(=O)N2CCCCC2)cc1`, the IC50 was > 100 µM (inactive). The compound further gave an IC50 under setting [1] above 100 µM. Moreover, the IC90 under setting [2] was above 100 µM. Also, the IC90 under setting [3] is above 100 µM.
`Cc1nn(-c2ccccc2)c(N2CCCC2)c1/C=C1\N=C(c2ccc(F)cc2)OC1=O`: the IC50 was 10.7 µM (inactive). The compound also displayed an IC50 under setting [1] of 23.4 µM. Also, the IC90 under setting [2] stood at 26.8 µM. Also, the IC90 under setting [3] came out at 22.9 µM.
As to `N#CCOC(=O)/C=C/c1ccc2c(c1)OCO2`, the IC50 was 29.7 µM. Moreover, the IC50 under setting [1] is above 100 µM. Under setting [2], this compound registered a concentration for an effect of 90% (IC90) above 100 µM. Further, the IC90 under setting [3] was above 50 µM.
Turning to `O=C1OC(/C=C/c2ccc(Cl)cc2Cl)=NC/1=C\c1cccs1`, the IC50 was 4.04 µM. Further, the IC50 under setting [1] is 14.7 µM. The IC90 under setting [2] was 60.1 µM. Moreover, the IC90 under setting [3] turned out to be 33.4 µM.
For the compound `Cc1cc(Br)ccc1NC(=O)CN1C(=O)C2CC=CCC2C1=O` (stereo not given), the IC50 was 1 µM. The half-maximal inhibitory concentration (IC50) under setting [1] came to 8.65 µM. Further, the IC90 under setting [2] was 26.7 µM. The compound further showed an IC90 under setting [3] of 38.7 µM.
Consider `C=CCc1cc(Cl)ccc1OCCCNC(C)CC` (stereo not given), for which the IC50 was 38.2 µM (inactive). For the same compound, under setting [1], the IC50 stood at 49.2 µM. This compound registered an IC90 under setting [2] of 55.1 µM. Under setting [3], this compound showed an IC90 of 51.3 µM.
The like results for `COc1ccc2sc(-c3ccc(N(C)C)cc3)c(C#CC(C)(C)O)c2c1` were, in that order, 19.8 µM, above 100 µM, above 100 µM and above 100 µM.
The like results for `Nc1ccc(C(=O)O)c(O)c1` were, in that order, 0.25 µM (inactive), below 0.2 µM, 7.65 µM and 1.88 µM.
For the compound `CC1CN(C(=S)NC(=O)c2cccc([N+](=O)[O-])c2)CC(C)O1` (stereo not given), the concentration for half-maximal inhibition (IC50) is 11.8 µM. Further, under setting [1], the IC50 is 42.3 µM. The 90% effect concentration (IC90) under setting [2] was above 100 µM. Under setting [3], the IC90 was above 100 µM.
For `COc1ccc(NC(=O)CN2CCN(C3c4ccccc4-c4ccccc43)CC2)c(OC)c1`, the IC50 was > 100 µM (inactive). Besides, the IC50 under setting [1] was above 100 µM. The compound also displayed an IC90 under setting [2] above 100 µM. In addition, the IC90 under setting [3] is above 100 µM.
Consider `COC(=O)N1C(=O)[C@](Cc2ccccc2)(c2ccccc2)N1C(=O)OC`, for which the IC50 was > 100 µM (inactive). Under setting [1], this compound returned an IC50 above 100 µM. This compound displayed an IC90 under setting [2] above 100 µM. The IC90 under setting [3] is above 100 µM.
As to `CCOC(=O)[C@H]1[C@H]2COc3ccc(Br)cc3[C@@H]2N2C(=O)c3cc(OC)c(OC)cc3NC(=O)[C@@]12C`, the IC50 is > 50 µM (inactive). Under setting [1], this compound had an IC50 of 80.9 µM. Under setting [2], this compound had an IC90 above 100 µM. The IC90 under setting [3] is above 50 µM.
In the case of `CCc1cc(C(N)=S)ccn1`, the IC50 is 8.46 µM. Further, the IC50 under setting [1] was found to be 59.3 µM. The same compound returned an IC90 under setting [2] above 100 µM. Further, the IC90 under setting [3] stood at 12.8 µM.
The corresponding values for `O=C(Oc1oc(-c2ccco2)nc1C=Nc1ccc(Cl)cc1)c1ccco1` are 15 µM, above 100 µM, above 100 µM and above 100 µM.
The like results for `Cc1ccc(SCCNC(=O)c2ccc(C)c([N+](=O)[O-])c2)cc1` were, in that order, 49.6 µM (inactive), above 100 µM, above 100 µM and 54 µM.
The like results for `COc1cc(/C=N/NC(=S)Nc2cccc(S(=O)(=O)N(C)C)c2)cc(OC)c1O` were, in that order, > 100 µM (inactive), above 100 µM, above 100 µM and above 100 µM.
Regarding `O=C(Nc1nc2ccccc2n1CCN1CCCC1)C1CCCCC1`, the IC50 was 8.68 µM. The compound also displayed an IC50 under setting [1] of 23.9 µM. This compound also yielded an IC90 under setting [2] of 47.2 µM. Under setting [3], this compound showed an IC90 of 27.5 µM.
The like results for `CN(/N=C/c1ccncc1)c1cnc2ccccc2n1` were, in that order, 59.8 µM (inactive), above 100 µM, above 100 µM and above 100 µM.
For the compound `O=C(Nc1ccc(C(F)(F)F)cc1)c1cc(-c2cccnc2)nc2ccc(Br)cc12`, the IC50 is > 100 µM (inactive). Under setting [1], this compound came in with an IC50 above 100 µM. Further, the IC90 under setting [2] was above 100 µM. Besides, the IC90 under setting [3] is above 100 µM.
`COc1cc(NC(=O)c2ccc(Cl)cc2)c(OC)cc1NC(=O)CN1CCOCC1`: the IC50 is > 100 µM (inactive). This compound registered an IC50 under setting [1] above 100 µM. Further, the IC90 under setting [2] is above 100 µM. For the same compound, the IC90 under setting [3] is above 100 µM.
Take `CCCSc1nnc(NC(=O)c2sc3nc(-c4cccs4)ccc3c2N)s1`: the IC50 is 62.8 µM (inactive). Further, the IC50 under setting [1] is above 100 µM. The compound further yielded an IC90 under setting [2] above 100 µM. This compound showed an IC90 under setting [3] above 100 µM.
`CCOc1ccc(-c2nnc(-c3cccs3)o2)cc1OCC`: the IC50 is > 100 µM (inactive). Under setting [1], this compound showed an IC50 above 100 µM. For the same compound, under setting [2], the IC90 was above 100 µM. This compound showed an IC90 under setting [3] above 100 µM.
`O=C1COc2ccc(C(=O)CCl)cc2N1`: the IC50 is 25.7 µM (inactive). Under setting [1], this compound displayed an IC50 of 24.7 µM. Besides, the IC90 under setting [2] amounted to 27 µM. The IC90 under setting [3] worked out at 44.4 µM.
Turning to `O=C1Nc2c(ccc(Cl)c2Cl)C(=O)C1(F)c1ccccc1` (stereo not given), the IC50 is 23.7 µM. The compound also gave an IC50 under setting [1] of 95.6 µM. Also, under setting [2], the IC90 was above 100 µM. Further, the IC90 under setting [3] came out at 71.7 µM.
On to `O=C(Nc1nnc(-c2ccco2)o1)c1ccc(S(=O)(=O)N2CCOCC2)cc1`, for which the IC50 was 24.5 µM. In addition, the IC50 under setting [1] is 63.5 µM. The compound further yielded an IC90 under setting [2] above 100 µM. This compound had an IC90 under setting [3] above 100 µM.
In the case of `COCc1nnc(NC(=O)c2ccc(S(=O)(=O)N(C)c3ccccc3)cc2)o1`, the IC50 is 17.4 µM (inactive). In addition, under setting [1], the IC50 is 40.3 µM. The compound further yielded an IC90 under setting [2] above 100 µM. The IC90 under setting [3] was above 100 µM.
For `CCOc1cc(/C=N/Nc2nc(-c3cccs3)c(NC(C)=O)s2)ccc1O`, the IC50 is 42.4 µM (inactive). The same compound showed an IC50 under setting [1] above 100 µM. The same compound gave an IC90 under setting [2] above 100 µM. The same compound returned an IC90 under setting [3] above 100 µM.
On to `COc1ccc(/C=N/Nc2nc(-c3ccc(C)cc3)c(NC(C)=O)s2)cc1`, for which the IC50 is 24.2 µM. Besides, the IC50 under setting [1] is above 100 µM. The IC90 under setting [2] was above 100 µM. This compound yielded an IC90 under setting [3] above 100 µM.
Turning to `CSc1ccc(-c2nnn(CC(=O)NCc3ccccc3)n2)cc1`, the IC50 is 15.8 µM. This compound also returned an IC50 under setting [1] above 100 µM. Moreover, the IC90 under setting [2] is above 100 µM. The IC90 under setting [3] is above 100 µM.
Turning to `O=C1O/C(=C/c2ccccc2)N=C1c1ccccc1`, the IC50 was 1.34 µM. Under setting [1], this compound gave an IC50 of 16.9 µM. Further, the IC90 under setting [2] is above 100 µM. Also, under setting [3], the 90% effect concentration (IC90) was 28.3 µM.
For `COC(=O)c1sc(-c2ccc(Cl)cc2)cc1NC(=O)COCC(=O)O`, the IC50 was 15.2 µM. The compound also returned an IC50 under setting [1] of 39.5 µM. The same compound gave an IC90 under setting [2] above 100 µM. The same compound came in with an IC90 under setting [3] of 44.8 µM.
The like results for `CCSc1nnc(NC(=O)CSc2nccn2-c2cccc(C)c2)s1` were, in that order, > 100 µM (inactive), above 100 µM, above 100 µM and above 100 µM.
For `Cc1cc(C)c(OCC(=O)Nc2nc3ccccc3[nH]2)c(C)c1`, the IC50 is 1.22 µM. Under setting [1], the 50% inhibitory concentration (IC50) is 22.1 µM. For the same compound, the IC90 under setting [2] is above 100 µM. Under setting [3], this compound returned an IC90 of 65.2 µM.
On to `Cc1ccc(CNC(=O)c2cn(C)c3ccc(S(=O)(=O)N4CCOCC4)cc3c2=O)cc1`, for which the IC50 is > 50 µM (inactive). The IC50 under setting [1] is above 100 µM. The IC90 under setting [2] was above 100 µM. In addition, the IC90 under setting [3] was above 50 µM.
Consider `O=C(CSc1nc2ncc(Cl)cc2[nH]1)Nc1cccc(F)c1`, for which the IC50 is > 100 µM (inactive). Moreover, the IC50 under setting [1] is above 100 µM. Besides, the IC90 under setting [2] was above 100 µM. The compound further had an IC90 under setting [3] above 100 µM.
Take `CC/C(=N\NC(=O)c1ccc(N(C)C)cc1)c1ccccc1`: the IC50 is > 100 µM (inactive). The IC50 under setting [1] is above 100 µM. The compound also yielded an IC90 under setting [2] above 100 µM. Further, the IC90 under setting [3] was above 100 µM.
In the case of `O=C(N/N=C/c1ccc(-c2cccc(C(F)(F)F)c2)o1)c1ccccc1O`, the IC50 is 32.8 µM. For the same compound, the IC50 under setting [1] was above 100 µM. For the same compound, the IC90 under setting [2] was above 100 µM. The compound further showed an IC90 under setting [3] above 100 µM.
`O=C(CCN1C(=O)/C(=C/c2ccccc2F)SC1=S)Nc1ccccn1`: the IC50 is > 100 µM (inactive). The compound further registered an IC50 under setting [1] above 100 µM. The compound further showed an IC90 under setting [2] above 100 µM. This compound displayed an IC90 under setting [3] above 100 µM.
On to `Nc1c(C(=O)N2CCCC2)sc2nc3c(cc12)CCCCCC3`, for which the IC50 was 19.4 µM. Under setting [1], this compound had a 50% inhibitory concentration (IC50) of 92.2 µM. Further, the IC90 under setting [2] was above 100 µM. The IC90 under setting [3] was above 100 µM.
For `Cc1ccc(OC(=O)COc2ccccc2)c(-n2nc3ccccc3n2)c1`, the IC50 is > 100 µM (inactive). Moreover, the IC50 under setting [1] is above 100 µM. Under setting [2], this compound came in with an IC90 above 100 µM. Moreover, the IC90 under setting [3] is above 100 µM.
Take `CC1(C)CCN2CCC(C)(C)c3c(O)ccc1c32`: the IC50 was 34.7 µM (inactive). Moreover, the IC50 under setting [1] came out at 47.1 µM. The IC90 under setting [2] was 53 µM. The compound also displayed an IC90 under setting [3] of 49.3 µM.
As to `NC(=S)N/N=C/c1ccc2ccccc2c1`, the IC50 was 2.02 µM. Also, under setting [1], the IC50 is above 100 µM. Besides, under setting [2], the IC90 was above 100 µM. This compound came in with an IC90 under setting [3] above 100 µM.
Regarding `COC(=O)c1c(C)n(-c2ccc(C)cc2)c2ccc(O)cc12`, the IC50 is > 100 µM (inactive). Moreover, under setting [1], the IC50 was above 100 µM. For the same compound, the IC90 under setting [2] was above 100 µM. Further, under setting [3], the IC90 is above 100 µM.
Regarding `Cc1nnc(SCc2ccc(C(=O)Nc3cc(Cl)ccc3C)cc2)s1`, the IC50 was > 100 µM (inactive). Under setting [1], the IC50 was above 100 µM. The IC90 under setting [2] was above 100 µM. Under setting [3], this compound gave an IC90 above 100 µM.

Values taken from PubChem BioAssay AID434987 (Southern Research Specialized Biocontainment Screening …, 2010).
